Reference: patent US7004171B2, “System for transvaginal drug delivery” (Hi-Gienic Intra Vaginal Technologies Ltd., priority 2002, dated 2006)

Conditions: Sorensen buffer pH 7.4, 37° C., 24 hours agitation, excess drug
Source text: The release medium used for these experiments was the Sorensen-Walbum buffer, chosen here due to its lack of absorbance in the UV range, thus causing less interference with the analytical drug detection process. The buffer consisted of glycine (0.1 M) and NaCl (0.1 M), adjusted to pH 7.4 with NaOH (0.1M).

- saturation concentration: 100 µg/mL
SMILES: CC(C)Cc1ccc(C(C)C(=O)O)cc1 (stereo not shown) [Ibuprofen]
